From US10450615B2, “Methods and compositions for detecting gastrointestinal and other cancers” (Case Western Reserve University, priority 2003, dated 2019)

Tested on: vimentin gene expression in colon cancer cell lines
Test: RT-PCR of vimentin expression in colon cancer cell lines after 5-azacytidine treatment
Type: cell-based, human
Conditions: FIG. 2, cell lines with vimentin DNA methylation, optimal tolerated doses ranging from 1 μg/ml to 3 μg/ml, reactivated in V400, V429, V503, RCA, V5, RKO, V432, V703, V457
Method: The cultures were grown and treated as described previously (Veigl, et al., 1998, Proc. Natl. Acad. Sci. USA, 95:8698-8702). The optimal tolerated doses were determined for each treated line, and two doses were used for some lines, ranging from 1 μg/ml to 3 μg/ml.
To establish that methylation was responsible for silencing vimentin gene expression, cell lines with vimentin DNA methylation were treated with 5-azacytidine (5-azaC), a demethylating agent.

With Nc1ncn([C@@H]2O[C@H](CO)[C@@H](O)[C@H]2O)c(=O)n1 [5-azaC, 5-azacytidine] the “colon cancer cell lines in which vimentin expression was reactivated (induced)” value was 9 of 12.
